From patent publication US9920012B2, “Indazole guanidine F1F0-ATPase inhibitors and therapeutic uses thereof” (Lycera Corporation, priority 2012, dated 2018)
Where two headings read alike, the source gives them in different places.

Key:
F1F0-ATPase = target: T1, F1F0-ATPase (Bos taurus, UniProt P13621); test: Inhibition of F1F0-ATPase activity in synthesizing ATP; type: biochemical; settings: inhibition of ATP synthesis; detection limit IC50=16 μM; read-out: ATP Syn IC50
T1 construct: from tissue
Experimental: (§1) Exemplary compounds described in above Examples were tested for activity against F1F0-ATPase by measuring the ability of the compounds to inhibit ATP synthesis. In addition, the compounds were assessed for cytotoxicity in Ramos cells. Inhibition of F1F0-ATPase activity in synthesizing ATP and cytotoxicity in Ramos cells were measured according to the procedures described in K. M. Johnson et al. Chemistry & Biology 2005, 12, 485-496.

Ramos cells = test: Cytotoxicity in Ramos cells; type: cell-based; settings: detection limit EC50=16 μM, read-out: Ramos Cell EC50
Experimental: as §1

| Structure (SMILES) | IC50 (F1F0-ATPase) | EC50 (Ramos cells) | EC50 (Ramos cells; Homo sapiens) |
| --- | --- | --- | --- |
| CC(C)CNC(=NC(=O)c1ccc(F)c(F)c1)Nc1n[nH]c2cc(Cl)c(F)cc12 [Compound A-101] | < 5 µM | < 5 µM | – |
| CCOCCNC(=NC(=O)c1ccc(F)c(F)c1)Nc1n[nH]c2cc(Cl)c(F)cc12 [Compound A-102] | < 5 µM | < 5 µM | – |
| COC[C@H](C)NC(=NC(=O)c1ccc(F)c(F)c1)Nc1n[nH]c2cc(Cl)c(F)cc12 [Compound A-103] | < 5 µM | < 5 µM | – |
| CC(C)(C)NC(=NC(=O)c1cccc(Cl)c1)Nc1n[nH]c2cc(Cl)c(F)cc12 [Compound A-104] | < 5 µM | < 5 µM | – |
| CC(C)CNC(=NC(=O)c1cccc(Cl)c1)Nc1n[nH]c2cc(Cl)c(F)cc12 [Compound A-105] | < 5 µM | 5 to 16 µM | – |
| CCOCCNC(=NC(=O)c1cccc(Cl)c1)Nc1n[nH]c2cc(Cl)c(F)cc12 [Compound A-106] | < 5 µM | – | < 5 µM |
| COC[C@H](C)NC(=NC(=O)c1cccc(Cl)c1)Nc1n[nH]c2cc(Cl)c(F)cc12 [Compound A-107] | < 5 µM | < 5 µM | – |

Continued, in another order:

| IC50 (F1F0-ATPase) | Structure (SMILES) | EC50 (Ramos cells) | EC50 (Ramos cells; Homo sapiens) |
| --- | --- | --- | --- |
| < 5 µM | CC(C)CNC(=NC(=O)c1ccc(O)cc1)Nc1n[nH]c2cc(Cl)ccc12 [Compound A-108] | 5 to 16 µM | – |
| 5 to 16 µM | CC(C)CNC(=NC(=O)c1ccc(O)cc1)Nc1n[nH]c2cc(F)ccc12 [Compound A-109] | 5 to 16 µM | – |
| < 5 µM | COc1cc(F)c2c(NC(=NC(=O)c3ccc(F)c(F)c3)NC(C)(C)C)n[nH]c2c1 [Compound A-110] | 5 to 16 µM | – |
| < 5 µM | O=C(/N=C(/Nc1cc(F)cc(Cl)c1)Nc1n[nH]c2ccccc12)c1ccc(Cl)cc1 [Compound A-111] | – | 5 to 16 µM |
| < 5 µM | O=C(/N=C(/Nc1cc(F)cc(Cl)c1)Nc1n[nH]c2ccc(F)cc12)c1ccc(F)c(F)c1 [Compound A-112] | – | < 5 µM |
| > 16 µM | O=C(/N=C(/Nc1cc(F)cc(Cl)c1)Nc1n[nH]c2cccc(F)c12)c1ccc(F)c(F)c1 [Compound A-113] | – | > 16 µM |
| > 16 µM | COC[C@H](C)N/C(=N/C(=O)c1ccc(F)c(F)c1)Nc1nn(C)c2cc(C(F)(F)F)ccc12 [Compound A-114] | – | > 16 µM |
| > 16 µM | COC[C@H](C)N/C(=N/C(=O)c1ccc(Cl)cc1)Nc1nn(C)c2cc(C(F)(F)F)ccc12 [Compound A-115] | – | > 16 µM |
